# In publication PMC3574224, “Na^+ Regulation in the Malaria Parasite Plasmodiumfalciparum Involves the Cation ATPase PfATP4 and Is a Target of the Spiroindolone Antimalarials” (Cell Host & Microbe, 2013):
# Key:
# [1] = tested on: P. falciparum 3D7 trophozoites; assay: microbe, parasite or virus in culture; assay type: cell-based, Plasmodium falciparum; conditions: for IC50: Plasmodium falciparum, concentration causing [Na^+]i to increase from resting value at half the maximal rate, from fitted curves, read-out: IC50 for disruption of Na^+ regulation; for Rate of increase of [Na^+]i at maximally effective concentrations: maximally effective concentration
# Procedure: P. falciparum strains 3D7, Dd2, NITD609-R^Dd2 clone #2, Dd2^attB, and Dd2^attB CAM I398F/P990R were cultured under shaking conditions as described elsewhere ([Allen and Kirk, 2010]). Cultures were synchronized 24 hr before experimentation using 5% w/v sorbitol ([Lambros and Vanderberg, 1979]). All experiments were conducted on mature trophozoite-stage parasites (36–40 hr postinvasion) functionally isolated from their host erythrocytes by permeabilization of the erythrocyte and parasitophorous vacuole membranes by brief exposure to saponin (0.05% w/v) as described previously ([Spillman et al., 2008]).
# (§1) The [Na^+]i of saponin-isolated parasites was measured at 37°C using the Na^+-sensitive dye SBFI (Molecular Probes, Invitrogen) in conjunction with a PerkinElmer LS 50B Fluorescence Spectrometer fitted with a Dual Excitation Fast Filter. Saponin-isolated parasites were loaded with SBFI by suspension (at 1.40–1.80 × 10^8 cells/mL) for 20 min at 37°C in bicarbonate-free RPMI1640 supplemented with 20 mM D-glucose, 0.2 mM hypoxanthine, 25 mM HEPES, and 25 mg/L gentamycin sulfate (pH 7.10), to which SBFI-acetoxymethyl ester (5.5 μM) and Pluronic F-127 (0.01% w/v) were added. The dye-loaded cells were washed twice (12,000 × g, 0.5 min) in bicarbonate-free RPMI then incubated for a further 20 min at 37°C to allow for complete de-esterification of the dye before being resuspended at a final cell concentration of 1.5–2.5 × 10^7 cells/mL in standard saline. The dye-loaded cells were excited at 340 nm and 380 nm with fluorescence recorded at 490 nm. Calibration of the relationship between the 340/380 nm fluorescence ratio and [Na^+]i (see Figures S1A–S1C) was carried out as described previously ([Diarra et al., 2001]; [Harootunian et al., 1989]).
# The initial Na^+ influx rate (at t = 0) is a × Δ[Na^+]i^max.
# (§2) Dose-response curves were obtained using the expression y = y^min + y^max/(1 + [C/IC50]^b), where y is the parameter being measured (parasite proliferation, Na^+ influx, or ATPase activity), y^min is the minimum value of y, y^max is the maximum value of y, C is the concentration of the moiety that was varied in the experiment, IC50 is the concentration at which y was reduced to 50% of y^max, and b is a fitted constant.
# [2] = tested on: P. falciparum trophozoites; assay: Cytosolic pH (pHi) in BCECF-loaded saponin-isolated parasites; assay type: cell-based, Plasmodium falciparum
# Procedure: pHi of saponin-isolated parasites was measured using the pH-sensitive indicator BCECF (Molecular Probes, Invitrogen) as described previously ([Saliba and Kirk, 1999]). […] Critical experiments performed using SBFI-loaded parasites were repeated with parasites loaded with BCECF.
# P. falciparum parasites = assay: Parasite proliferation, [^3H]hypoxanthine incorporation assay, 48 hr; assay type: cell-based; conditions: Plasmodium falciparum; mean ± SEM, number of independent experiments in parentheses; read-out: IC50 for inhibition of parasite proliferation
# Procedure: Parasite growth assays were performed in 96-well plates over 48 hr (commencing at the ring stage) using a standard [^3H]hypoxanthine incorporation assay ([Desjardins et al., 1979]).
# as §2
# [3] = tested on: P. falciparum trophozoites; assay: Recovery of [Na^+]i from an imposed intracellular Na^+ load (K^+ removal and restoration); assay type: cell-based, Plasmodium falciparum; conditions: added with 10 mM KCl
# Procedure: The mechanism responsible for the increase in [Na^+]i seen upon removal of extracellular K^+ was not investigated further here. However, the phenomenon does provide a useful means of imposing an intracellular Na^+ load on the parasite and of testing the effect of inhibitors on the net efflux of Na^+ from the Na^+-loaded parasite.
# as §1, with “1989]). Several inhibitors used in this study caused inner filter effects ([Gu and Kenny, 2009]; [Srinivas and Mutharasan, 1987]); in these cases calibration curves were generated with the inhibitors present.” for “1989]).”
# The rate of efflux of Na^+ from the cells, following an imposed intracellular Na^+ load, was estimated by fitting the following function to the [Na^+]i traces: [Na^+]i = Δ[Na^+]i^max × e^-at + [Na^+]i^final, where Δ[Na^+]i^max is the increase in [Na^+]i above the normal resting value (following the imposition of an intracellular Na^+-load), t is the time after the commencement of efflux (on addition of extracellular K^+), a is a fitted constant, and [Na^+]i^final is the final value of [Na^+]i. The initial Na^+ efflux rate (at t = 0) is a × Δ[Na^+]i^max, and the half-time to complete recovery (t1/2) is ln(0.5)/-a.
# [4] = tested on: P. falciparum trophozoites; assay: Cytosolic [Ca^2+]i in fura-2-loaded saponin-isolated parasites; assay type: cell-based, Plasmodium falciparum; conditions: 2 μM; medium containing 1 μM Ca^2+
# Procedure: [Ca^2+]i was measured with the Ca^2+-sensitive indicator fura-2 (Molecular Probes, Invitrogen) using a loading protocol identical to that described for SBFI. Calibration was performed as described previously ([Alleva and Kirk, 2001]).
# [5] = 10 μM, on the timescale of the experiments
molecule,measurement,setting,value
"CCN(CC)CCCC(C)Nc1ccnc2cc(Cl)ccc12 (stereo not shown) [chloroquine, reference compound]",Effect on [Na^+]i,[1]; [5],no effect
"[Na+].[Na+].[Na+].[O]=[V]([O-])([O-])[O-] [Sodium orthovanadate, reference compound]",Cytosolic pH (pHi) after addition,"[2]; 100 μM, Na^+-dependent, increase from 7.28 ± 0.03, n = 6, p = 0.024",7.36 ± 0.03
same,Effect on [Na^+]i,[1]; 100 μM,prolonged time-dependent increase
same,Rate of increase of [Na^+]i,"[1]; 500 μM, n = 4",0.13 ± 0.03 mM/s
C[C@H]1CCc2c([nH]c3ccccc23)[C@@]2(N1)C(=O)Nc1ccc(Br)cc12 [NITD139],IC50,P. falciparum parasites,4 ± 0.9 nM
same,Effect on resting [Na^+]i,"[1]; 50 nM, 3D7, standard saline",immediate rapid increase in [Na^+]i
same,IC50,"[1]; 3D7, standard saline",16.6 ± 5.7 nM
same,Rate of increase of [Na^+]i at maximally effective concentrations,[1],0.098 ± 0.007 mM/s
"C[C@@H]1O[C@@H](O[C@H]2C[C@@H](O)[C@]3(CO)[C@H]4[C@H](O)C[C@]5(C)[C@@H](C6=CC(=O)OC6)CC[C@]5(O)[C@@H]4CC[C@]3(O)C2)[C@H](O)[C@H](O)[C@H]1O [ouabain, reference compound]",Effect on resting [Na^+]i,[1]; 2 mM,nor the Na^+/K^+-ATPase inhibitor ouabain (2 mM) had a significant effect
"CCN(c1nc(N)c(C(=O)NC(=N)N)nc1Cl)C(C)C [EIPA, ethylisopropylamiloride, reference compound]",Effect on recovery of [Na^+]i after Na^+ load,[3]; 20 μM,unaffected
same,Effect on resting [Na^+]i,[1]; 20 μM,Neither the Na^+/H^+ exchanger inhibitor ethylisopropylamiloride (EIPA; 20 μM) nor the Na^+/K^+-ATPase inhibitor ouabain (2 mM) had a significant effect
"C[C@@H]1CC[C@H]2[C@@H](C)C(=O)O[C@@H]3O[C@@]4(C)CC[C@@H]1[C@]32OO4 [artemisinin, reference compound]",Effect on [Na^+]i,[1]; [5],no effect
"NS(=O)(=O)c1cc(C(=O)O)c(NCc2ccco2)cc1Cl [Furosemide, reference compound]",Effect on recovery of [Na^+]i after Na^+ load,[3]; 100 μM,slowed
"C/C=C/[C@H]1O[C@@](O)([C@@H](C)[C@H](O)[C@H](C)[C@H]2OC(=O)/C(OC)=C/C(C)=C/[C@@H](C)[C@@H](O)[C@@H](CC)[C@@H](O)[C@H](C)C/C(C)=C/C=C/[C@@H]2OC)C[C@@H](O[C@H]2C[C@@H](O)[C@H](OC(N)=O)[C@@H](C)O2)[C@@H]1C [concanamycin A, reference compound]",Effect on pHi of parasites after NITD246- or orthovanadate-induced alkalinisation,"[2]; 75 nM, pHi decreasing to below its normal resting value",immediate reversal of the alkalinisation
Gramicidin [reference compound],Effect on [Na^+]i,"[1]; 5 μM, [Na^+]o 125 mM",rapid increase in [Na^+]i
"C/C=C(/C)C(=O)O[C@H]1C(C)=C2[C@H]([C@@H]1OC(=O)CCCCCCC)[C@@](C)(OC(C)=O)C[C@H](OC(=O)CCC)[C@@]1(O)[C@H]2OC(=O)[C@@]1(C)O [thapsigargin, reference compound]",Effect on [Na^+]i,[1]; 2 μM,little effect
"CC(=O)C1=C(O)[C@@H]2[C@H]3c4c[nH]c5cccc(c45)C[C@H]3C(C)(C)N2C1=O [CPA, cyclopiazonic acid, reference compound]",Effect on [Ca^2+]i,[4],transient increase in [Ca^2+]i
same,Effect on [Na^+]i,[1]; 40 μM,caused [Na^+]i to increase
C[C@@H]1Cc2c([nH]c3cc(F)c(F)cc23)[C@]2(N1)C(=O)Nc1ccc(Cl)cc12 [NITD247],IC50,P. falciparum parasites,41.6 ± 5.8 nM
same,Effect on resting [Na^+]i,"[1]; 50 nM, 3D7, standard saline",little effect
same,IC50,"[1]; 3D7, standard saline",407 ± 117 nM
same,Rate of increase of [Na^+]i at maximally effective concentrations,[1],0.125 ± 0.013 mM/s
C[C@@H]1CCc2c([nH]c3ccccc23)[C@]2(N1)C(=O)Nc1ccc(Br)cc12 [NITD138],IC50,P. falciparum parasites,2300 ± 200 nM
same,Effect on resting [Na^+]i,"[1]; 50 nM, 3D7, standard saline",little effect
same,Rate of increase of [Na^+]i at maximally effective concentrations,[1],did not reach the maximum value at the highest concentration tested
